Reference: PubChem BioAssay (NCI)
Several values for one entry are separate records, joined by “and”; a condition that tells them apart may be missing. Equal entries are not always repeated.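 Where inhibition never reached the appropriate level, the endpoint shown equals the highest concentration tested. Otherwise, values were interpolated linearly from a five-concentration, 48-hour dose response in 96-well plates. The concentration for 50% growth inhibition is given as GI50. TGI marks complete inhibition of growth.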

How the values were obtained:
Assay in all cases: growth of human tumour cells (NCI), 48 h
OVCAR-5 ovarian = test system: OVCAR-5 ovarian
K-562 leukemia = test system: K-562 leukemia
HT29 colon = test system: HT29 colon
NCI-H23 lung = test system: NCI-H23 lung
HCT-116 colon = test system: HCT-116 colon
SK-MEL-5 melanoma = test system: SK-MEL-5 melanoma
ACHN renal = test system: ACHN renal
MCF7 breast = test system: MCF7 breast
CCRF-CEM leukemia = test system: CCRF-CEM leukemia
SW-620 colon = test system: SW-620 colon

Row | SMILES | TGI (OVCAR-5 ovarian) | TGI (K-562 leukemia) [µM] | TGI (HT29 colon) | TGI (NCI-H23 lung) | TGI (HCT-116 colon) [µM] | TGI (SK-MEL-5 melanoma) | TGI (ACHN renal) | TGI (MCF7 breast) | GI50 (CCRF-CEM leukemia) | TGI (CCRF-CEM leukemia) | GI50 (SW-620 colon) | TGI (SW-620 colon) | GI50 (OVCAR-5 ovarian) | GI50 (HT29 colon) | GI50 (NCI-H23 lung) | GI50 (HCT-116 colon) | GI50 (SK-MEL-5 melanoma) | GI50 (ACHN renal) | GI50 (MCF7 breast) | GI50 (K-562 leukemia)
1 | Cn1c(=O)c2[nH]c(CCCc3ccc([N+](=O)[O-])cc3)nc2n(C)c1=O | > 100 µM | > 100 | > 100 µM | > 100 µM | > 100 | > 100 µM | > 100 µM | > 100 µM | – | – | – | – | – | – | – | – | – | – | – | –
2 | COc1cc(/C=C/C(=O)c2c(C)nc3ccccc3c2C)ccc1OCCCCOc1cc2c(cc1OC)C(=O)N1CCC[C@H]1C=N2 | 3.35 µM | – | 2.02 µM | 1.42 µM | 6.49 | 1.47 µM | 3.22 µM | 0.975 µM | 0.225 µM | 1.48 µM | 0.203 µM | 0.538 µM | 0.528 µM | 0.403 µM | 0.396 µM | 0.432 µM | 0.517 µM | 1.46 µM | 0.238 µM | –
3 | CCOC(=O)[C@@H](C)C[C@H](Cc1ccccc1)NC(=O)c1csc([C@@H](C[C@H](C(C)C)N(C)C(=O)[C@@H](NC(=O)[C@H]2C[C@H](O)CCN2C)C(C)C)OC(C)=O)n1 | > 16.7 µM | > 16.7 | > 16.7 µM | > 16.7 µM | – | 0.13 µM | > 16.7 µM | > 16.7 µM | 0.00534 µM | > 16.7 µM | 0.00417 µM | > 16.7 µM | 0.015 µM | 0.0023 µM | 0.00763 µM | – | 0.00175 µM | 0.106 µM | < 0.00167 µM | 0.00252 µM
4 | O=C(/C=C/c1cccc(S(=O)(=O)Nc2ccccc2)c1)NO | 13.2 µM and > 16.9 µM | > 100 | 15.9 µM and > 15.8 µM | 7.47 µM and 2.69 µM | 1.18 | 1.03 µM and 0.192 µM | 3.22 µM and 8.44 µM | > 100 µM and 10.4 µM | – | 58.2 µM and > 100 µM | 0.227 µM and 0.0308 µM | 9.27 µM and > 47.1 µM | 0.428 µM and 0.146 µM | 0.25 µM and 1.15 µM | 0.707 µM and 0.112 µM | 0.206 µM and 0.0391 µM | – | 0.429 µM and 0.422 µM | 0.384 µM and 0.157 µM | 0.325 µM and 0.0593 µM
5 | O=C1NC(=O)C(c2ccccc2)=C1Nc1ccccc1 | > 25 µM | > 25 | > 25 µM | – | > 25 | > 25 µM | > 25 µM | > 25 µM | – | – | > 25 µM | > 25 µM | > 25 µM | > 25 µM | – | > 25 µM | > 25 µM | > 25 µM | > 25 µM | > 25 µM
6 | O=C1/C(=C\c2ccccc2)CN(C(=O)c2ccccc2)C/C1=C\c1ccccc1 | 6.83 µM | > 100 | 4.09 µM | 12.4 µM | 1.1 | 3.06 µM | 3.33 µM | 1.69 µM | 1.43 µM | 6.49 µM | 1.47 µM | 3.04 µM | 2.24 µM | 1.91 µM | 3.62 µM | 0.321 µM | 1.64 µM | 1.73 µM | 0.39 µM | 1.67 µM
7 | CCCCN(CC)CCCCCCCCCCN1CCCc2cc(OC)ccc21 | 24.1 µM | 5.69 | 4.29 µM | 6.09 µM | 3.63 | 3.12 µM | 14.9 µM | 3.59 µM | 3 µM | 12.5 µM | 2.23 µM | 6.24 µM | 6.37 µM | 1.46 µM | 2.16 µM | 1.73 µM | 1.73 µM | 3.91 µM | 1.8 µM | 2.21 µM
8 | COC(=O)[C@@H](C)C[C@H](Cc1ccccc1)NC(=O)c1csc([C@@H](C[C@H](C(C)C)N(C)C(=O)C2(NC(=O)[C@H]3CCCCN3C)CCC2)OC(C)=O)n1 | > 25 µM | > 25 | > 25 µM | > 25 µM | 2.52 | 0.146 µM and 0.125 µM | > 25 µM | > 25 µM | 0.00533 µM and 0.0025 µM | > 25 µM | 0.00513 µM and 0.0025 µM | > 25 µM | 0.0786 µM and 0.0099 µM | 0.00269 µM and 0.0025 µM | 0.00779 µM and 0.00892 µM | 0.00447 µM and 0.0025 µM | 0.00401 µM and 0.0025 µM | 0.0249 µM and 0.0193 µM | 0.000508 µM and 0.0025 µM | 0.00252 µM and 0.0025 µM
9 | Brc1ccc(Nc2nc3ccccc3nc2Nc2ccc(Br)cc2)cc1 | 5.15 µM | 11.6 | 10.9 µM | 6.52 µM | 1.65 | 3.11 µM | 3.22 µM | 5.41 µM | 1.01 µM | 10.7 µM | 2.78 µM | 10.5 µM | 1.03 µM | 0.404 µM | 1.32 µM | 0.418 µM | 1.56 µM | 0.583 µM | 0.527 µM | 0.786 µM
10 | O=C1c2cccnc2C(=O)c2c1c(C(=O)OCCc1ccccn1)c1ccccn21 | 10.5 µM | > 100 | 3.35 µM | 1.06 µM | 0.318 | 0.299 µM | 1.22 µM | 0.147 µM | 1.46 µM | > 25.9 µM | < 0.01 µM | > 44.8 µM | 0.497 µM | 1.54 µM | 0.0218 µM | 0.019 µM | 0.0332 µM | < 0.01 µM | < 0.01 µM | 0.0612 µM
11 | Oc1ccc(Cc2ccc(O)c(C3CC(c4ccc(Cl)cc4)=NN3)c2)cc1C1CC(c2ccc(Cl)cc2)=NN1 (stereo unspecified) | > 35.7 µM | > 100 | > 44.6 µM | > 37.1 µM | 5.59 | 11.5 µM | > 31.8 µM | > 100 µM | 1.94 µM | > 100 µM | 3.23 µM | 16 µM | 4.45 µM | 6.41 µM | 3.07 µM | 1.72 µM | 2.81 µM | 3.1 µM | 3.04 µM | 2.51 µM
12 | CN(CSc1ccc(Cl)cc1)c1ccc(CSc2ccc(Cl)cc2)cc1 | 34.5 µM | > 100 | 34.2 µM | 19.5 µM | 11.9 | 19.8 µM | 22.3 µM | 18.5 µM | 0.704 µM | > 100 µM | 3.96 µM | 15.9 µM | 13.5 µM | 12.2 µM | 4.24 µM | 3.06 µM | 6.85 µM | 6.28 µM | 3.17 µM | 6.64 µM
13 | O=C(Nc1ccc(I)cc1)c1cccc([N+](=O)[O-])c1O | > 100 µM | > 100 | > 100 µM | 8 µM | 13.8 | – | > 100 µM | > 100 µM | 2.76 µM | 29.7 µM | 4.44 µM | > 100 µM | 18.1 µM | 4.84 µM | 2.26 µM | 3.11 µM | – | 4.16 µM | 2.76 µM | 2.64 µM
